Several values for one entry are separate records, joined by “and”; a condition that tells them apart may be missing. Equal values may be shown once.
Experiments:
CytC [1] = biological target: T1, CytC (Homo sapiens, UniProt P99999); assay: CytC aptasensor calibration curve by square wave voltammetry; format: binding
T1 construct: purchased RayBiotech Life, Inc (GA, USA)
Source text: (§1) Characterization of the electrochemical aptamer-based sensor. An electrochemical sensor with a modified aptamer that recognizes CytC was developed, enabling real-time monitoring of CytC increases in the supernatant due to cell death in cuboids during drug screening. The aptamer sequences were modified with a redox-active molecule, methylene blue (MB), at the distal end of the aptamer. As shown at FIG. 2A, the binding of the CytC target induces a rapid and reversible conformational change in the aptamer, increasing the electron transfer (eT) rate between the MB reporter and the WE surface. This change in eT results in a measurable variation in redox current, easily detectable using square wave voltammetry (SWV). Changes in peak current height were monitored, which correlates with the proximity of the MB redox tag to the electrode. The performance of the aptasensors in response to varying concentrations of CytC (ranging from 1 to 30,000 ng/mL) is presented at FIG. 2B. At a recording frequency of 50 Hz, the peak current height of the sensors decreases as the CytC concentration increases.
Electrochemical signal measurement. All the electrochemical measurements were performed using a Digi-Ivy potentiostat (DY-2219, Digi-Ivy, Austin, TX, USA). For the SWV measurements, the sensors were integrated from 0.0 to −0.5 V (versus Ag/AgCl) with 40-mV amplitude and a voltage increment of 1 mV suitable frequency setting (ranging from 10 Hz to 1,000 Hz). A conventional three-electrode cell was used in electrodeposition, Ag/AgCl with 3M KCl as reference electrode, and platinum wire (0.05 mm diameter, Alfa Aesar, MA, USA) as counter electrode.
Quantitative analysis and characterization of the Cyt C aptamer sensor. The CytC sensors were characterized in cultured medium DMEM-F12-10% FBS with spiked human CytC recombinant (reconstituted in PBS). The SWV measurement for aptasensors was scanned from −0.5 V to 0 V with 40-mV amplitude and a step potential of 1 mV. The frequency is 50 Hz and 1,000 Hz.

CytC [2] = biological target: T1, CytC; assay: Binding kinetics of the CytC aptasensor (temporal response, flow injection analysis)
Source text: Binding kinetics of the CytC aptasensor. The binding kinetics of aptamer-protein complexes were further evaluated. […] Next, the monomolecular dissociation rate constant (koff) was computed. The aptasensor platform was adapted for flow injection analysis under constant flow. The sensor platform was modified to incorporate an inlet and outlet loop injection system. With this setup, the different phases of aptamer-target interaction were able to be measured, including association, dissociation, and equilibrium. […] Initially, the aptamer remained unbound in the absence of the target, producing baseline levels of current. The introduction of the target initiated the association phase, which led to the occupation of aptamer binding sites. This phase continued until a steady-state or equilibrium point was attained. Subsequently, the semi-automated target removal initiated the dissociation phase of the aptamer-target complex. The continuous flow of the medium enabled the aptasensor to recover eventually, gradually returning to the baseline levels within approximately 12 hrs.
Modify sensor platform to become injection analysis platform for characterization of binding kinetics. The existing platform was modified by introducing an additional PMMA layer to establish channels and the well layer altered to create a sealed chamber for flow injection. The PMMA layer (0.3 mm thick) was lined with 3M300LSE adhesive before being precisely cut using a CO2 laser. The culture medium was injected through tubing (Tygona, Cole-Parmer, IL, USA) connected to the injector loop at a 2.5 mL/min flow rate using a Fusion 200 syringe pump (Chemyx, Inc, TX, USA). Following a 5-minute equilibration period during which the sensors were exposed to continuous medium flow, CytC was introduced into the flow as the target compound.

CytC [3] = biological target: T1, CytC; assay: Selectivity of the CytC aptasensor against interferents and drugs; format: binding
Description: Selectivity of the CytC aptasensor. Selectivity is a factor for the practical application of these sensors in tumor-on-a-chip models for drug screening. To assess the selectivity of the sensors, experiments were conducted in which the sensor's responses to CytC (100 ng/mL) vs. responses in the presence of other potentially interfering molecules (also at 100 ng/mL) were measured. Measurements were performed in a growth medium at 50 Hz.
Ex-vivo monitoring of CytC from microdissected tumor tissues after drug treatment in culture using the aptasensor platform. The sensor platform's ability to quantify CytC secretion from cuboids was evaluated at different time points during an extended culture period (48 hrs). Cuboids from human U87 glioma cell-derived tumors grown in athymic nude mice were prepared. […] Next, the sensor platform's ability to measure CytC secretion from cuboids in response to exposure to cytotoxic drugs was evaluated. Initially, the baseline signal was measured with the encapsulated cuboids on the WE before exposing U87 cuboids to different concentrations of cisplatin (a cytotoxic chemotherapy drug, FIG. 5C), sepantronium bromide, (YM-155, a survivin inhibitor and potential anti-cancer drug, FIG. 5D), and mocetinostat (MOC, a histone deacetylases inhibitor cancer drug, FIG. 5E) for 48 hrs. […]

[4] = test system: U87 glioma xenograft cuboids; assay: On-device aptasensor monitoring of CytC secretion from drug-treated cuboids; format: cell-based; conditions: for CytC level vs control: 12 to 48 hrs
Description: Ex-vivo monitoring of CytC from microdissected tumor tissues after drug treatment in culture using the aptasensor platform. The sensor platform's ability to quantify CytC secretion from cuboids was evaluated at different time points during an extended culture period (48 hrs). Cuboids from human U87 glioma cell-derived tumors grown in athymic nude mice were prepared. After overnight culture in a 96-well plate to allow recovery from tissue damage due to the cutting procedure, the cuboids were transferred onto the sensor platform for measurement. To prevent random adhesion of the cuboids to the sensor surface and improve the precise localization of CytC secretion detection, the cuboids were encapsulated in a hydrogel. They were mixed with hydrogel before transferring onto the sensors and immobilizing them to a restricted area just above the working electrode (FIGS. 5A-5B). […] Encapsulation of cells in hydrogels in close proximity to the WE also generates a more localized and distinguishable electrochemical response. Hydrogels can be used as a protective layer to ensure the long-term stability of aptasensors. A polysaccharide hydrogel (Cellink, Bioink, Boston, USA) that contains nanofibrillar cellulose and sodium alginate was used. […] It was also observed that the performance of the sensors remained unhindered regardless of the hydrogel concentration, apart from an extension of the reaction time to approximately 30 min. […] Next, the sensor platform's ability to measure CytC secretion from cuboids in response to exposure to cytotoxic drugs was evaluated. Initially, the baseline signal was measured with the encapsulated cuboids on the WE before exposing U87 cuboids to different concentrations of cisplatin (a cytotoxic chemotherapy drug, FIG. 5C), sepantronium bromide, (YM-155, a survivin inhibitor and potential anti-cancer drug, FIG. 5D), and mocetinostat (MOC, a histone deacetylases inhibitor cancer drug, FIG. 5E) for 48 hrs. […] These observations were consistent with fluorescence-based findings and agreed with the sensor-based responses. […]

[5] = test system: U87 glioma xenograft cuboids; assay: Terminal SYTOX green dead stain fluorescence of cuboids; format: cell-based; conditions: 48 hrs
Cytochrome c (CytC) = Cytochrome c (CytC) (Homo sapiens, UniProt P99999 P99999:2-105); assay: apparent KD, electrochemical aptamer sensor on Au, square wave voltammetry 50 Hz, Langmuir-Hill fit; text also prints 515±130 μM (6.19 ng/mL corresponds to abou); conditions: tags: RayBiotech Life recombinant human cytochrome c; label: 3' methylene blue
Source text: as §1

T1 sequence (P99999 whole entry): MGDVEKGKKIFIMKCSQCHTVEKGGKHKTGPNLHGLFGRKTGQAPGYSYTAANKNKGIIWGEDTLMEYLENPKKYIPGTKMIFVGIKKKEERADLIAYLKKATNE
Cytochrome c (CytC), sequence (P99999 2-105, one chain of several): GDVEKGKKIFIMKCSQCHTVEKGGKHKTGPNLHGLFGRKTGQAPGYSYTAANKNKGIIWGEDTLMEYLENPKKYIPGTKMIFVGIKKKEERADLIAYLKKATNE

5′-/ThioMC6-D/CC GTGTCTGGGGCCGACCGGCGCATTGGGTACGTTGTTGC/AmMO/-3′ (DNA CCGTGTCTGGGGCCGACCGGCGCATTGGGTACGTTGTTGC; chemistry not fully specified) [CytC aptasensor, DNA aptamer recognizing cytochrome C, modified with methylene blue redox reporter, immobilized on gold working electrode]
detectable relevant concentrations (CytC [1]; 50 Hz): up to 3.32 μM | dynamic range (CytC [1]; 50 Hz): up to 39,580 ng/mL | apparent dissociation constant, KD (CytC [1]; calibration curve at 50 Hz, nonlinear regression fit to Langmuir-Hill isotherm): 6.19 ± 1.57 ng/mL and ~6 ng/mL | time to return to baseline (dissociation) (CytC [2]): 12 h | response time to target (CytC [2]; after addition of 1,000 ng/ml CytC, SWV 50 Hz): ≤ 100 s | time to return to baseline levels (dissociation) (CytC [2]; continuous flow of medium after target removal): approximately 12 hrs | signal gain for CytC vs interfering molecules (CytC [3]; CytC 100 ng/mL vs FGF, EGF, IL-2, BSA at 100 ng/mL, growth medium, 50 Hz): higher signal gain | signal gain for CytC vs drugs used for treatment (CytC [3]; CytC 100 and 2000 ng/mL vs DMSO, MOC, FOLFOX, Cisplatin, Staurosporine, YM-155, culture medium, 50 Hz, 1,000 Hz, KDM): higher signal gain

N.N.[Cl][Pt][Cl] [cisplatin]
CytC level vs control ([4]; 30 μM cisplatin): higher CytC level compared to the control | CytC level vs control ([4]; 100 μM cisplatin): highest levels of CytC | SG dead stain fluorescence vs control ([5]; 30 μM cisplatin): higher SG dead stain fluorescence | SG dead stain fluorescence vs control ([5]; 100 μM cisplatin): higher SG dead stain fluorescence

Nc1ccccc1NC(=O)c1ccc(CNc2nccc(-c3cccnc3)n2)cc1 [MOC, mocetinostat]
CytC production rate vs DMSO control ([4]; 10 μM MOC, 48 hrs, not statistically significant): higher average CytC production rate than the DMSO control | SG dead stain fluorescence vs DMSO control ([5]; 10 μM MOC): slightly elevated SG dead stain fluorescence

B1: CytC aptamer (SEQ ID NO:1) (ssDNA)
DNA: CCGTGTCTGGGGCCGACCGGCGCATTGGGTACGTTGTTGC
modifications: 5' ThioMC6-D (disulfide C6 thiol, attached to gold electrode); 3' amino modifier conjugated to methylene blue
binding result (Cytochrome c (CytC)): binds

Reference: patent US20240369511A1, “INTEGRATED ELECTROCHEMICAL APTASENSORS FOR MEASURING CELL DEATH AND CYTOKINE ACTIVITY FROM INTACT TISSUE SAMPLES” (University of Washington, priority 2023, published 2024)
